From patent publication US20230416261A1, “ETHANEDIAMINE-HETEROCYCLE DERIVATIVES AS INHIBITORS OF PROTEIN ARGININE METHYLTRANSFERASES” (Board of Regents, The University of Texas System, priority 2021, published 2023)

Experiments:
PRMT1 [1] = target: T1, PRMT1 (Homo sapiens, UniProt Q99873); experiment: PRMT1 RKO Cellular Target Engagement Assay (In-Cell Western, asymmetric di-methyl arginine); assay type: cell-based; conditions: RKO cells, 48 hr compound incubation; read-out: RKO IC50 (PRMT-1 Target Engagement)
T1 sequence (Q99873 whole entry): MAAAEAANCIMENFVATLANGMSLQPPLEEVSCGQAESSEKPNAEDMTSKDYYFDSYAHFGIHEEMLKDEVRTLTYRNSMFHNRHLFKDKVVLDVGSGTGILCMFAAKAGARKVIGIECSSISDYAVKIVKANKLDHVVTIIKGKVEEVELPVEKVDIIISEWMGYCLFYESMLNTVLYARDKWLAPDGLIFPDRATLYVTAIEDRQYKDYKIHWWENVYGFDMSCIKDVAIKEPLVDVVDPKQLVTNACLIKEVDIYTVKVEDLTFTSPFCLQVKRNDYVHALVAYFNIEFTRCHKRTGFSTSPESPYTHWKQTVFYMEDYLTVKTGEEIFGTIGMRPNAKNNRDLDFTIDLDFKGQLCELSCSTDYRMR
Procedure: RKO cells were routinely maintained in EMEM media (ATCC, Catalog #30-2003) supplemented with 10% fetal bovine serum (Sigma, Catalog #F2442) using a humidified incubator (37° C., 5% CO2, and ambient O2).
In preparation for the In-Cell Western assay, cells were harvested and resuspended in EMEM media supplemented with 10% fetal bovine serum. Cells were seeded onto a 384 well, black, clear bottom, Poly-D-Lysine coated tissue culture plate (Greiner, Catalog #781946) at a density of 1,000 cells/well in a volume of 40 μL. The culture plate was incubated for 24 hr at 37° C. with 5% CO2 and ambient O2. Stock solutions of the test compounds were prepared in 100% DMSO (Sigma, Catalog #D2650) and serially diluted 1:3 using 100% DMSO. Compounds were additionally diluted 1:40 in culture medium, and 10 μL/well was transferred to the tissue culture plate. Following the compound addition the microplate was incubated at 37° C. for 48 hr.
The media was removed, the plate was washed with 1× PBS (Fisher Bioreagents, Catalog #BP399-20), and cells were fixed for 10 min using 30 μL/well of 4% paraformaldehyde (Electron Microscopy Sciences, Catalog #15710). The paraformaldehyde was removed, the plate was again washed with 1× PBS, and cells were permeabilized for 15 min using 30 μL/well of 1× PBS containing 0.5% Triton-X 100 (Sigma, Catalog #1001748095). The permeabilization buffer was removed, the plate was washed with 1× PBST (Boston BioProducts, Catalog #IBB-171X), and 50 μL/well of blocking buffer (LI-COR, Catalog #927-40000) was added followed by a 1 hour incubation at room temperature. The blocking buffer was removed, and 20 μL/well of anti-asymmetric di-methyl arginine antibody (Cell Signaling, Catalog #13522S) diluted 1:1000 in LI-COR blocking buffer was added to the plate and incubated overnight, in the dark at 4° C.
The primary antibody was then removed, and the plate was washed three times with 1× PBST. 20 μL/well of CellTag (LI-COR, Catalog #926-41090) and IRDye 800CW goat anti-rabbit IgG antibody (LI-COR, Catalog #926-32211), each diluted 1:500 in LI-COR blocking buffer supplemented with 0.1% Tween-20 (Thermo Scientific, Catalog #85114), were added to the plate. The plate was then incubated in the dark, at room temperature for 1 hour followed by three washes with 1× PBST and one wash with H2O. The IRDye secondary antibody signal (800 channel) and the CellTag signal (700 channel) were measured using a Licor Odyssey Imager, and the 800 channel signal was then normalized to the 700 channel signal. IC50 values were calculated using a four-parameter logistic curve fit using Genedata Screener software.

PRMT1 [2] = target: T1, PRMT1; experiment: PRMT1 Enzymatic Assay (LANCE TR-FRET, methylation of histone H4 at Arg3); assay type: biochemical; set-up: purchased SignalChem P365-380G; conditions: PRMT1 1.5 nM, SAM 1 μM, biotinylated histone H4 (1-21) 25 nM; read-out: PRMT-1 IC50
Procedure: In order to measure PRMT1 enzymatic activity the LANCE TR-FRET assay from PerkinElmer was used to follow the methylation of histone H4 at Arg3 using S-adenosyl-L-methionine (SAM) as the methyl group donor.
This enzymatic assay was performed in a 384 well, white, low volume plate (PerkinElmer, Catalog 6008289) with assay buffer consisting of 50 mM Hepes (pH 8) (Teknova, Catalog #H1090), 1 mM TCEP (Sigma, Catalog #C4706), and 0.003% Tween-20 (Thermo, Catalog #85114). Stock solutions of the test compounds were prepared in 100% DMSO (Sigma, Catalog #D2650) and serially diluted 1:3 using 100% DMSO. Compounds were additionally diluted 1:40 in assay buffer, and 2 uL/well were transferred to the assay plate. 4 uL/well (final concentration 1.5 nM) of PRMT1 protein (SignalChem, Catalog #P365-380G) diluted in assay buffer was added to the assay plate followed by a 15 min preincubation at room temperature. 4 uL/well of SAM (Sigma, Catalog #A7007) and biotinylated histone H4 (1-21) (AnaSpec, Catalog #62555) (final concentrations 1 μM and 25 nM, respectively) diluted in assay buffer were then added to the assay plate followed by a 1 hour reaction time. Final concentrations of PRMT1, SAM, and histone H4 (1-21) refer to a […].
Detection of methylated histone H4 (H4R^3me) was achieved by combining LANCE Ultra Europium-anti-H4R^3me antibody (PerkinElmer, Catalog #TRF04-14), LANCE Ultra ULight-anti-streptavidin antibody (PerkinElmer, Catalog #TRF0102), and sinefungin (Sigma, Catalog #S8559) (final concentrations 2 nM, 50 nM, and 100 μM respectively) in 1× LANCE detection buffer (PerkinElmer, Catalog #CR97-100) and adding L/well of the detection solution to the assay plate. Detection reagents were allowed to react for 1 hour at room temperature. Final concentrations in the detection solution refer to a L volume. The europium fluorescence signal and the ULight TR-FRET signal were measured using a BioTek Synergy Neo plate reader: excitation at 330 nm, emission at 620 nm and 665 nm respectively, and the ratio of the two signals (665 nm/620 nm) was used for curve fitting. IC50 values were calculated using a four-parameter logistic curve fit using Genedata Screener software.

DOHH2 cells = experiment: DOHH2 Long Term Phenotypic Assay (7 days, Cell Titer-Glo viability); assay type: cell-based; conditions: Homo sapiens, DOHH-2, 168 h, Cell Titer-Glo 2.0
Procedure: DOHH2 cells were kindly provided by Michael Green (MDACC). The cells were routinely maintained in RPMI-1640 Medium (ATCC, Catalog #30-2001) supplemented with 10% fetal bovine serum (Sigma, Catalog #F2442), 100 units/mL penicillin and 100 μg/mL streptomycin (Gibco, Catalog #15140-122) in a humidified incubator (37° C., 5% CO2). Cells were seeded onto a white, CulturPlate-384 (Perkin Elmer, catalog #6007680) at a density of 250 cells per well in a volume of 50 μL. Stock solutions of the test compounds were prepared in 100% DMSO (Sigma, Catalog #D2650) and serially diluted 1:3 using 100% DMSO. Compounds were additionally diluted 1:33 in culture medium, and 10 μL/well was transferred to the tissue culture plate. Following the compound addition, the plate was incubated at 37° C. and 5% CO2 for 7 days. Cells were then mixed and a 30 μL volume was removed. Viability was assessed by a 30 μL addition of Cell Titer-Glo 2.0 (Promega, catalog #G9243). The plate was then shaken on an orbital shaker at 300 RPM for 10 minutes at room temperature, in the dark. Luminescence was measured using a PerkinElmer Envision™ plate reader. IC50 values were calculated using a four-parameter logistic curve fit using Genedata Screener software.

Row | SMILES | IC50 (PRMT1 [1]) [nM] | IC50 (PRMT1 [2]) [nM] | IC50 (DOHH2 cells) [nM]
1 | CNCCN(C)Cc1nn2c(c1C1CCC(COC)(COC)CC1)CN(C(=O)C1CCCCC1)CC2 [Example 51, (3-(4,4-bis(methoxymethyl)-cyclohexyl)-2-((methyl(2-(methylamino)ethyl)amino)-methyl)-6,7-dihydropyrazolo-[1,5-a]pyrazin-5(4H)-yl)-(cyclohexyl)methanone] | 10000 | 58 | 75
2 | CNCCN(C)Cc1nn2c(c1C1CCC(COC)(COC)CC1)CN(C(=O)CC#N)CC2 [Example 52, 3-(3-(4,4-bis(methoxy-methyl)cyclohexyl)-2-((methyl(2-(methylamino)-ethyl)amino)methyl)-6,7-dihydropyrazolo[1,5-a]-pyrazin-5(4H)-yl)-3-oxopropanenitrile] | 163 | 71 | 514
3 | CNCCN(C)Cc1nn2c(c1C1CCC(COC)(COC)CC1)CN(C(=O)C(C)(C)COC)CC2 [Example 54, 1-(3-(4,4-bis(methoxy-methyl)cyclohexyl)-2-((methyl(2-(methylamino)-ethyl)amino)methyl)-6,7-dihydropyrazolo[1,5-a]-pyrazin-5(4H)-yl)-3-methoxy-2,2-dimethylpropan-1-one] | 203 | 103 | 293
4 | CNCCN(C)Cc1nn2c(c1C1CCC(COC)(COC)CC1)CN(C(C)=O)CC2 [Example 55, 1-(3-(4,4-bis(methoxy-methyl)cyclohexyl)-2-((methyl(2-(methylamino)-ethyl)amino)methyl)-6,7-dihydropyrazolo[1,5-a]-pyrazin-5(4H)-yl)ethan-1-one] | 1110 | 70 | 296
5 | CNCCN(C)Cc1nn2c(c1C1CCC(COC)(COC)CC1)CN(C(=O)C1CCC(F)(F)C1)CC2 (stereo not drawn) [Example 56, (3-(4,4-bis(methoxymethyl)-cyclohexyl)-2-((methyl(2-(methylamino)ethyl)amino)-methyl)-6,7-dihydropyrazolo-[1,5-a]pyrazin-5(4H)-yl)(3,3-difluorocyclopentyl)-methanone] | 392 | 54 | 83
6 | COCC1(COC)CCC(c2c(CN(C)CCN)nn3c2CN(C(=O)C2CC(C(F)(F)F)C2)CC3)CC1 (stereo not drawn) [Example 62, (2-(((2-aminoethyl)(methyl)-amino)methyl)-3-(4,4-bis-(methoxymethyl)cyclohexyl)-6,7-dihydropyrazolo[1,5-a]-pyrazin-5(4H)-yl)(3-(trifluoromethyl)cyclobutyl)-methanone] | 1380 | 23 | 76
7 | CNCCN(C)Cc1nn2c(c1C1CCC(COC)(COC)CC1)CN(C(=O)C1(C(C)C)CCC1)CC2 [Example 64, (3-(4,4-bis(methoxymethyl)-cyclohexyl)-2-((methyl(2-(methylamino)ethyl)amino)-methyl)-6,7-dihydropyrazolo-[1,5-a]pyrazin-5(4H)-yl)(1-isopropylcyclobutyl)-methanone] | 2330 | 112 | 230
8 | CCC(C)C(=O)N1CCn2nc(CN(C)CCNC)c(C3CCC(COC)(COC)CC3)c2C1 (stereo not drawn) [Example 65, 1-(3-(4,4-bis(methoxy-methyl)cyclohexyl)-2-((methyl(2-(methylamino)-ethyl)amino)methyl)-6,7-dihydropyrazolo[1,5-a]-pyrazin-5(4H)-yl)-2-methylbutan-1-one] | 534 | 70 | 134
9 | CCC1(C(=O)N2CCn3nc(CN(C)CCNC)c(C4CCC(COC)(COC)CC4)c3C2)CCC1 [Example 67, (3-(4,4-bis(methoxymethyl)-cyclohexyl)-2-((methyl(2-(methylamino)ethyl)amino)-methyl)-6,7-dihydropyrazolo-[1,5-a]pyrazin-5(4H)-yl)(1-ethylcyclobutyl)methanone] | 273 | 75 | 156

Continued by falling IC50 (PRMT1 [1]), values first:

Row | IC50 (PRMT1 [1]) [nM] | IC50 (PRMT1 [2]) [nM] | SMILES | IC50 (DOHH2 cells) [nM]
10 | 2400 | 439 | CCOC12CC(C(=O)N3CCn4nc(CN(C)CCNC)c(C5CCC(COC)(COC)CC5)c4C3)(C1)C2 [Example 26, (3-(4,4-bis(methoxymethyl)-cyclohexyl)-2-((methyl(2-(methylamino)ethyl)amino)-methyl)-6,7-dihydropyrazolo-[1,5-a]pyrazin-5(4H)-yl)(3-ethoxybicyclo[1.1.1]pentan-1-yl)methanone] | 844
11 | 958 | 52 | CNCCN(C)Cc1nn2c(c1C1CCC(COC)(COC)CC1)CN(C(=O)C1CC(C(F)F)C1)CC2 (stereo not drawn) [Example 66, (3-(4,4-bis(methoxymethyl)-cyclohexyl)-2-((methyl(2-(methylamino)ethyl)amino)-methyl)-6,7-dihydropyrazolo-[1,5-a]pyrazin-5(4H)-yl)(3-(difluoromethyl)cyclobutyl)-methanone] | 150
12 | 267 | 80 | CNCCN(C)Cc1nn2c(c1C1CCC(COC)(COC)CC1)CN(C(=O)C1(C)CCCO1)CC2 (stereo not drawn) [Example 57, (3-(4,4-bis(methoxymethyl)-cyclohexyl)-2-((methyl(2-(methylamino)ethyl)amino)-methyl)-6,7-dihydropyrazolo-[1,5-a]pyrazin-5(4H)-yl)(2-methyltetrahydrofuran-2-yl)-methanone] | 170
13 | 177 | 48 | CNCCN(C)Cc1nn2c(c1C1CCC(COC)(COC)CC1)CN(C(=O)C(C)(C)F)CC2 [Example 59, 1-(3-(4,4-bis(methoxy-methyl)cyclohexyl)-2-((methyl(2-(methylamino)-ethyl)amino)methyl)-6,7-dihydropyrazolo[1,5-a]-pyrazin-5(4H)-yl)-2-fluoro-2-methylpropan-1-one] | 113
